ChEMBL document CHEMBL5505979, “Novel aminothiazoximone-corbelled ethoxycarbonylpyrimidones with antibiofilm activity to conquer Gram-negative bacteria through potential multitargeting effects” (Eur J Med Chem, 2024)
Where “and” joins values, the source holds several entries; their conditions need not be identical. Equal values may be shown once.

Legend:
Type in all cases: functional
[1] = tested on: Candida albicans; test: Anti-fungal activity against Candida albicans 90023 assessed as inhibition of fungal growth
[2] = tested on: Staphylococcus aureus; test: Anti-bacterial activity against Staphylococcus aureus ATCC 12600 assessed as inhibition of bacterial growth
[3] = tested on: Enterococcus faecalis; test: Anti-bacterial activity against Enterococcus faecalis V583 assessed as inhibition of bacterial growth
[4] = tested on: Candida albicans; test: Anti-fungal activity against Candida albicans assessed as inhibition of fungal growth
[5] = tested on: Candida parapsilosis; test: Anti-fungal activity against Candida parapsilosis assessed as inhibition of fungal growth
[6] = tested on: Staphylococcus aureus; test: Anti-bacterial activity against Staphylococcus aureus ATCC 25923 assessed as inhibition of bacterial growth
[7] = tested on: Pseudomonas aeruginosa; test: Anti-bacterial activity against Pseudomonas aeruginosa ATCC 15442 assessed as inhibition of bacterial growth
[8] = tested on: Staphylococcus aureus; test: Anti-bacterial activity against Staphylococcus aureus CMCC (B) 26003 assessed as inhibition of bacterial growth
[9] = tested on: Staphylococcus aureus; test: Anti-bacterial activity against Staphylococcus aureus CMCC (B) 26001 assessed as inhibition of bacterial growth
[10] = tested on: Escherichia coli; test: Anti-bacterial activity against Escherichia coli ATCC 25922 assessed as inhibition of bacterial growth
[11] = tested on: Pseudomonas aeruginosa; test: Anti-bacterial activity against Pseudomonas aeruginosa ATCC 27853 assessed as inhibition of bacterial growth
[12] = tested on: Pseudomonas aeruginosa; test: Anti-bacterial activity against Pseudomonas aeruginosa CMCC (B) 10104 assessed as inhibition of bacterial growth
[13] = tested on: Candida tropicalis; test: Anti-fungal activity against Candida tropicalis assessed as inhibition of fungal growth
[14] = tested on: Staphylococcus aureus; test: Anti-bacterial activity against Staphylococcus aureus ATCC 1708 assessed as inhibition of bacterial growth
[15] = tested on: Staphylococcus aureus; test: Anti-bacterial activity against methicillin-resistant Staphylococcus aureus N315 assessed as inhibition of bacterial growth
[16] = tested on: Staphylococcus aureus; test: Anti-bacterial activity against methicillin-resistant Staphylococcus aureus ATCC 43300 assessed as inhibition of bacterial growth
[17] = tested on: Escherichia coli; test: Anti-bacterial activity against Escherichia coli JM109 assessed as inhibition of bacterial growth
[18] = tested on: Klebsiella pneumoniae; test: Anti-bacterial activity against Klebsiella pneumoniae KPN325 assessed as inhibition of bacterial growth
[19] = tested on: Staphylococcus aureus; test: Anti-bacterial activity against Staphylococcus aureus ATCC 29213 assessed as inhibition of bacterial growth
[20] = tested on: Staphylococcus aureus; test: Anti-bacterial activity against Staphylococcus aureus ATCC 6538 assessed as inhibition of bacterial growth
[21] = tested on: Acinetobacter baumannii; test: Anti-bacterial activity against Acinetobacter baumannii R674 assessed as inhibition of bacterial growth
[22] = tested on: Pseudomonas aeruginosa; test: Anti-bacterial activity against Pseudomonas aeruginosa ATCC 9027 assessed as inhibition of bacterial growth
[23] = tested on: Pseudomonas aeruginosa; test: Anti-bacterial activity against Pseudomonas aeruginosa ST235 assessed as inhibition of bacterial growth
[24] = Staphylococcus aureus, ATCC 12600, read-out: MIC
[25] = Candida albicans, read-out: MIC
[26] = Lodderomyces parapsilosis, read-out: MIC
[27] = Staphylococcus aureus, ATCC 25923, read-out: MIC
[28] = Pseudomonas aeruginosa, ATCC 15442, read-out: MIC
[29] = Pseudomonas aeruginosa, ATCC 27853, read-out: MIC
[30] = Pseudomonas aeruginosa, CMCC (B) 10104, read-out: MIC
[31] = Candida tropicalis, read-out: MIC
[32] = Staphylococcus aureus, ATCC 1708, read-out: MIC
[33] = Staphylococcus aureus, N315, read-out: MIC
[34] = Staphylococcus aureus, ATCC 43300, read-out: MIC
[35] = Klebsiella pneumoniae, KPN325, read-out: MIC
[36] = Staphylococcus aureus, ATCC 29213, read-out: MIC
[37] = Pseudomonas aeruginosa, ST235, read-out: MIC

Measured: MIC

CCOC(=O)C1=C(CN2CCNCC2)NC(=O)NC1c1ccc2c(c1)c1ccccc1n2CC (configuration not stated)
222 µM: [2]; [24] | [6]; [27] | [8] | [10] | [11]; [29] | [14]; [32] | [15]; [33] | [17] | [18]; [35] | [23]; [37]
470 µM: [4]; [25] | [5]; [26] | [13]; [31]
28 µM: [3]
111 µM: [9] | [16]; [34] | [20]
7 µM: [21]
14 µM: [19]; [36]
56 µM: [7]; [28]
444 µM: [12]; [30] | [22]
59 µM: [1]

OC(Cn1cncn1)(Cn1cncn1)c1ccc(F)cc1F [FLUCONAZOLE]
7 µM: [1]
26 µM: [13]; [31]
13 µM: [4]; [25] | [5]; [26]

CCOC(=O)C1=C(CN2CCN(C(=O)/C(=N/OC)c3csc(N)n3)CC2)NC(=O)NC1c1ccc(Cl)cc1Cl (configuration not stated)
54 µM: [2]; [24] | [6]; [27] | [7]; [28] | [9] | [10] | [11]; [29] | [12]; [30] | [14]; [32] | [20] | [23]; [37]
108 µM: [8] | [15]; [33] | [17] | [18]; [35] | [19]; [36] | [22]
27 µM: [3] | [16]; [34] | [21]
449 µM: [1] | [4]; [25] | [5]; [26] | [13]; [31]

CCOC(=O)C1=C(CN2CCN(C(=O)/C(=N/OC)c3csc(N)n3)CC2)NC(=O)NC1c1ccc(OC)c(OC)c1OC (configuration not stated)
52 µM: [10] | [11]; [29] | [23]; [37]
104 µM: [7]; [28] | [12]; [30] | [17] | [20] | [21] | [22]
398 µM: [1] | [4]; [25] | [5]; [26] | [13]; [31]
415 µM: [2]; [24] | [9] | [15]; [33]
26 µM: [18]; [35]
208 µM: [3] | [6]; [27] | [8] | [14]; [32] | [16]; [34] | [19]; [36]

CCOC(=O)C1=C(CN2CCN(C(=O)/C(=N/OC)c3csc(N)n3)CC2)NC(=O)NC1c1cccs1 (configuration not stated)
30 µM: [15]; [33] | [16]; [34]
480 µM: [1] | [4]; [25] | [5]; [26] | [13]; [31] | [21] | [22] | [23]; [37]
120 µM: [3]
60 µM: [7]; [28] | [20]
240 µM: [2]; [24] | [6]; [27] | [8] | [9] | [10] | [11]; [29] | [12]; [30] | [14]; [32] | [17] | [18]; [35] | [19]; [36]

CCOC(=O)C1=C(CN2CCN(C(=O)/C(=N/OC)c3csc(N)n3)CC2)NC(=O)NC1c1ccc(O)c(Br)c1 (configuration not stated)
13 µM: [3]
415 µM: [4]; [25] | [5]; [26] | [13]; [31]
52 µM: [2]; [24] | [7]; [28] | [9] | [10] | [11]; [29] | [17] | [18]; [35] | [19]; [36] | [20] | [23]; [37]
26 µM: [6]; [27] | [16]; [34] | [21]
104 µM: [1]
103 µM: [8] | [12]; [30] | [14]; [32] | [15]; [33] | [22]

CCCCc1nc(Cl)c(C2NC(=O)NC(CN3CCN(CC(=O)c4ccccc4)CC3)=C2C(=O)OCC)[nH]1 (configuration not stated)
472 µM: [4]; [25] | [5]; [26] | [8] | [13]; [31] | [14]; [32]
15 µM: [1]
118 µM: [7]; [28] | [11]; [29] | [12]; [30] | [17] | [21] | [22] | [23]; [37]
59 µM: [6]; [27] | [9] | [10] | [16]; [34] | [19]; [36]
236 µM: [2]; [24] | [3] | [15]; [33] | [18]; [35] | [20]

CCCCc1nc(Cl)c(C2NC(=O)NC(CN3CCN(CC(=O)c4nccs4)CC3)=C2C(=O)OCC)[nH]1 (configuration not stated)
58 µM: [2]; [24] | [7]; [28] | [10] | [11]; [29] | [12]; [30] | [16]; [34] | [17] | [19]; [36] | [21] | [22] | [23]; [37]
466 µM: [4]; [25] | [5]; [26] | [13]; [31]
117 µM: [3] | [8] | [14]; [32] | [15]; [33] | [18]; [35]
15 µM: [9]
29 µM: [1] | [6]; [27] | [20]

CCCCc1nc(Cl)c(C2NC(=O)NC(CN3CCN(CC(=O)c4ccc(F)cc4)CC3)=C2C(=O)OCC)[nH]1 (configuration not stated)
229 µM: [15]; [33] | [18]; [35] | [20]
114 µM: [7]; [28] | [8] | [10] | [12]; [30] | [14]; [32] | [16]; [34] | [17] | [21] | [22]
57 µM: [2]; [24] | [3] | [6]; [27] | [9] | [11]; [29] | [19]; [36] | [23]; [37]
457 µM: [4]; [25] | [5]; [26] | [13]; [31]
29 µM: [1]

CCCCc1nc(Cl)c(C2NC(=O)NC(CN3CCN(CC(O)c4nccs4)CC3)=C2C(=O)OCC)[nH]1 (configuration not stated)
455 µM: [4]; [25] | [5]; [26]
233 µM: [18]
50 µM: [2]; [24] | [6]; [27] | [19]; [36]
58 µM: [2] | [6] | [19]
199 µM and 466 µM: [15]
99 µM and 233 µM: [14]
116 µM: [12] | [23]
466 µM: [4] | [5]
227 µM and 466 µM: [13]
199 µM: [8] | [12]; [30] | [18]; [35] | [23]; [37]
50 µM and 116 µM: [7] | [11] | [16]
99 µM: [20]

CCOC(=O)C1=C(CN2CCN(C(=O)/C(=N/OC)c3csc(N)n3)CC2)NC(=O)NC1c1ccc(C#N)cc1 (configuration not stated)
115 µM: [1]
29 µM: [3] | [10] | [17] | [21]
232 µM: [9]
460 µM: [4]; [25] | [5]; [26] | [13]; [31]
116 µM: [18]; [35]
58 µM: [2]; [24] | [6]; [27] | [7]; [28] | [11]; [29] | [12]; [30] | [14]; [32] | [19]; [36] | [20] | [22] | [23]; [37]
